From patent US10168342B2, “Lipid probes and uses thereof” (THE SCRIPPS RESEARCH INSTITUTE, priority 2015, dated 2019)
Read-outs that look alike come from different tables or passages of the source.

Experiments:
[1] = target: T1, AEA-DA lipid probe targets in Neuro2a cells (Mus musculus, UniProt P15626)
T1 sequence (P15626 1-218): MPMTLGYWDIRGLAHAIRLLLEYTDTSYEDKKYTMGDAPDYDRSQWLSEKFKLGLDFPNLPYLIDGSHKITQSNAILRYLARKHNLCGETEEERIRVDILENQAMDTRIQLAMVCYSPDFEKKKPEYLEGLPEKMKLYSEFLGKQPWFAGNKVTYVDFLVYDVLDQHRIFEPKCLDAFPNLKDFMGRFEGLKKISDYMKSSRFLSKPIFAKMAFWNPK

[2] = target: AEA-DA lipid probe targets in Neuro2a cells (Mus musculus, UniProt P47867)
Chain of AEA-DA lipid probe targets in Neuro2a cells (Mus musculus, UniProt P47867) (P47867 23-471): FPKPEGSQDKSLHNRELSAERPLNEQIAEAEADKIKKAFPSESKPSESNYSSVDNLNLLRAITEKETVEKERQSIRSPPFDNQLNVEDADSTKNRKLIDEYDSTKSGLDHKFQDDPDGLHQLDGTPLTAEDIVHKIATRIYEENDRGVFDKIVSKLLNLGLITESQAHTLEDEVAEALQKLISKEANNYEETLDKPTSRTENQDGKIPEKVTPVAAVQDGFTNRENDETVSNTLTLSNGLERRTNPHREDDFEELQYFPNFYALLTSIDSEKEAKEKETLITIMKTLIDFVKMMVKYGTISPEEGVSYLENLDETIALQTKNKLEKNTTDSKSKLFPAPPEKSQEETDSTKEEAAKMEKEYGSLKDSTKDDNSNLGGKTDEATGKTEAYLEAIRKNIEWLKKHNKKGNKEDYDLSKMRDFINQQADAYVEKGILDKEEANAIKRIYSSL

[3] = target: T2, AEA-DA lipid probe targets in Neuro2a cells (Mus musculus, UniProt Q62465); conditions: for SILAC ratio, VAT1 (Q99536): Neuro2a cells, AEA-DA probe
T2 sequence (Q62465 1-406): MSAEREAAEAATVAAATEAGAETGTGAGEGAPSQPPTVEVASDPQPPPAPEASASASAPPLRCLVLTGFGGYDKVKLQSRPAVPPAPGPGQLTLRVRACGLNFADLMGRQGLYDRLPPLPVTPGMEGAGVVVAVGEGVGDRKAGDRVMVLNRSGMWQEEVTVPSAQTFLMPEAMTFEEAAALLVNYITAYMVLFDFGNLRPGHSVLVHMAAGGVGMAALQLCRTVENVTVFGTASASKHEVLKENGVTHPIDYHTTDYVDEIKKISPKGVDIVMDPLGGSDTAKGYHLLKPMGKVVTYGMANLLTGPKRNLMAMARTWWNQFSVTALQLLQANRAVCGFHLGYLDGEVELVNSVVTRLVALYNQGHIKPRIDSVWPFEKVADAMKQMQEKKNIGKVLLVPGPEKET

[4] = target: T3, AEA-DA lipid probe targets in Neuro2a cells (Mus musculus, UniProt Q8BHN3)
T3 sequence (Q8BHN3 33-944): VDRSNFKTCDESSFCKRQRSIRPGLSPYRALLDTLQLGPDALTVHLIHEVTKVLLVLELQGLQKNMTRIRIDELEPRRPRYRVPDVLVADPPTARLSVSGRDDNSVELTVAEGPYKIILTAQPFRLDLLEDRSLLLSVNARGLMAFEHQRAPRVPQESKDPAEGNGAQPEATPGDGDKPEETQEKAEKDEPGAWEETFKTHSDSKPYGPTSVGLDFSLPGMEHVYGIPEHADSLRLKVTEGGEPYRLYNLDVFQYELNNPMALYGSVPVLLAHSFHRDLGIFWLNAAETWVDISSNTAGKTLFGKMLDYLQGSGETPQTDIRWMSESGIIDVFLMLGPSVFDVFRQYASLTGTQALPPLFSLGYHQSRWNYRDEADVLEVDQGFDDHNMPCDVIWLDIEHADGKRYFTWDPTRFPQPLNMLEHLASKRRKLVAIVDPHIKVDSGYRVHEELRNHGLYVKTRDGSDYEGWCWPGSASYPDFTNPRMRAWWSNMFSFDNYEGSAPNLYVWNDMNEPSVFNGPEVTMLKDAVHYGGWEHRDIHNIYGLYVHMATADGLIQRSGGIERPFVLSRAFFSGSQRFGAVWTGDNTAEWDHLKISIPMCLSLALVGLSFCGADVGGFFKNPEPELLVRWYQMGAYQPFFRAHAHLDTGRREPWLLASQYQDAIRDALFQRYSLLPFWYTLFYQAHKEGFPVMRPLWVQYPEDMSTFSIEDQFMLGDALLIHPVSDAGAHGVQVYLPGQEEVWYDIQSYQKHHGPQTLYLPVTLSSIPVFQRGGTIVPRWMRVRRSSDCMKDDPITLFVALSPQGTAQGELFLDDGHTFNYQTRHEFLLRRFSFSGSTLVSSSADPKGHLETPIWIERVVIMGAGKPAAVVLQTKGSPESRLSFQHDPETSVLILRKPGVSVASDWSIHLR

[5] = target: T4, AEA-DA lipid probe targets in Neuro2a cells (Mus musculus, UniProt Q8VHE0)
T4 sequence (Q8VHE0 1-760): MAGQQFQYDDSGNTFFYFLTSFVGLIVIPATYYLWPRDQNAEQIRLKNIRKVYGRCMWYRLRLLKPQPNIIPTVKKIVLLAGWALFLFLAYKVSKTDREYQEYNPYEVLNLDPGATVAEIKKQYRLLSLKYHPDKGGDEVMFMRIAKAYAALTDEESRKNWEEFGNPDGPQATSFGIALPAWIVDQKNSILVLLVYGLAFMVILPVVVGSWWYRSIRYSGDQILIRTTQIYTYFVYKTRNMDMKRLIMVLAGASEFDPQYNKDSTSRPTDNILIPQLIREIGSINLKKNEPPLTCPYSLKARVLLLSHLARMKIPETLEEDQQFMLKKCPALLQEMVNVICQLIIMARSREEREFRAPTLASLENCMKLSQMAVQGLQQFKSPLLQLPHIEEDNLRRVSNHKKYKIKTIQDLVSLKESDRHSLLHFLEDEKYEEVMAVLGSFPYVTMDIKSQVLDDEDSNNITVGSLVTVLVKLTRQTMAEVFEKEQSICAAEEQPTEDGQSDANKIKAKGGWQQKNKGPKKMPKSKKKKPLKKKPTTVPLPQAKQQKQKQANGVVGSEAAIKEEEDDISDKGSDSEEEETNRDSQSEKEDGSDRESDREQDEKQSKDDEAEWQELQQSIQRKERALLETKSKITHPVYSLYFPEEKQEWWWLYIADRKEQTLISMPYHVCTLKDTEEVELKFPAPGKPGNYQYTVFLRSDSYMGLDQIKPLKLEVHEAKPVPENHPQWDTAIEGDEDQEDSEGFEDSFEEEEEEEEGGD

[6] = target: AEA-DA lipid probe targets in Neuro2a cells (Mus musculus, UniProt Q9EQK7)
Chain of AEA-DA lipid probe targets in Neuro2a cells (Mus musculus, UniProt Q9EQK7) (Q9EQK7 whole entry): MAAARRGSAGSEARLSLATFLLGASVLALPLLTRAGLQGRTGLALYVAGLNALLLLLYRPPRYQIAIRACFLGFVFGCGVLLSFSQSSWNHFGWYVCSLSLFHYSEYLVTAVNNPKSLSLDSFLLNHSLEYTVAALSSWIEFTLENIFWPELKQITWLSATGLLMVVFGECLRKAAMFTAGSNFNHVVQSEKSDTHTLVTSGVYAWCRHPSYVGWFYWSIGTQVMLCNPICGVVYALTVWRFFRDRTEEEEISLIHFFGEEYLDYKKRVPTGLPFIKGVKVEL

Row | SMILES | SILAC ratio, Gstm2 ([1]; competitor 25 μM) | SILAC ratio, Scg3 ([2]; competitor 25 μM) | SILAC ratio, VAT1 (Q99536) ([3]; competitor 25 μM) | SILAC ratio Vat1 ([3]; competitor 25 μM) | SILAC ratio Ganab ([4]; competitor 25 μM) | SILAC ratio Sec63 ([5]; competitor 25 μM) | SILAC ratio Icmt ([6]; competitor 25 μM) | other results
1 | O=C(/C=C/c1cccnc1)NCCCCC1CCN(C(=O)c2ccccc2)CC1 [FK-866, reference compound] | 1.5 | 1.0 | 1.9 | 1.9 | 1.1 | 1.1 | 1.3 | –
2 | CCCCC/C=C\C/C=C\C/C=C\C/C=C\CCCC(=O)NCCO [AEA, anandamide, reference compound] | – | – | – | – | – | – | – | SILAC ratio, Gstm2 ([1]; competitor 200 μM): 2.7; SILAC ratio, Scg3 ([2]; competitor 200 μM): 1.2; SILAC ratio, VAT1 (Q99536) ([3]; competitor 200 μM): 1.6; SILAC ratio Vat1 ([3]; competitor 200 μM): 1.6; SILAC ratio Ganab ([4]; competitor 200 μM): 1.1; SILAC ratio Sec63 ([5]; competitor 200 μM): 1.5; SILAC ratio Icmt ([6]; competitor 200 μM): 1.5
3 | CN1CCN(C(=O)c2c(-c3ccccc3)c3cc([N+](=O)[O-])ccc3n2C)CC1 [KML110, (1-Methyl-5-nitro-3-phenyl-1H-indol-2-yl)(4-methylpiperazin-1-yl)methanone] | – | 1.0 | – | 1.4 | 1.3 | 1.5 | 1.0 | –
4 | C=CCN(C)CCCCCCOc1ccc(C(=O)c2ccc(Br)cc2)c(F)c1 [Ro 48-8071, reference compound] | 1.3 | 0.9 | 1.2 | 1.2 | 0.9 | 1.0 | 1.6 | –
5 | CN1CCN(C(=O)c2[nH]c3ccc([N+](=O)[O-])cc3c2-c2ccccc2)CC1 [MJN228, (4-Methylpiperazin-1-yl)(5-nitro-3-phenyl-1H-indol-2-yl)methanone] | 1.6 | 1.3 | – | 1.3 | 1.2 | 1.5 | 0.9 | SILAC ratio, Gstm2 ([1]; competitor 10 μM): 1.6; SILAC ratio, Gstm2 ([1]; competitor 100 μM): 2.2; SILAC ratio, Scg3 ([2]; competitor 10 μM): 1.0; SILAC ratio, Scg3 ([2]; competitor 50 μM): 1.0; SILAC ratio, Scg3 ([2]; competitor 100 μM): 0.8; SILAC ratio Vat1 ([3]; competitor 10 μM): 1.2; SILAC ratio Vat1 ([3]; competitor 50 μM): 1.0; SILAC ratio Vat1 ([3]; competitor 100 μM): 1.2; SILAC ratio Ganab ([4]; competitor 10 μM): 1.2; SILAC ratio Ganab ([4]; competitor 50 μM): 1.5; SILAC ratio Ganab ([4]; competitor 100 μM): 1.6; SILAC ratio Sec63 ([5]; competitor 10 μM): 1.4; SILAC ratio Sec63 ([5]; competitor 50 μM): 1.8; SILAC ratio Sec63 ([5]; competitor 100 μM): 1.8; SILAC ratio Icmt ([6]; competitor 10 μM): 0.9; SILAC ratio Icmt ([6]; competitor 50 μM): 0.6; SILAC ratio Icmt ([6]; competitor 100 μM): 0.5
